Patent publication US11512069B2, “TLR7/8 antagonists and uses thereof” (Merck Patent GmbH, priority 2016, dated 2022)

Biological target: T1, TLR7 (Homo sapiens, UniProt Q9NYK1)
T1 construct: expressed in transfected cells; host or cells: HEK cells carrying TLR7 and an NF-kB reporter read with Steady-Glo
T1 sequence (Q9NYK1 27-1049): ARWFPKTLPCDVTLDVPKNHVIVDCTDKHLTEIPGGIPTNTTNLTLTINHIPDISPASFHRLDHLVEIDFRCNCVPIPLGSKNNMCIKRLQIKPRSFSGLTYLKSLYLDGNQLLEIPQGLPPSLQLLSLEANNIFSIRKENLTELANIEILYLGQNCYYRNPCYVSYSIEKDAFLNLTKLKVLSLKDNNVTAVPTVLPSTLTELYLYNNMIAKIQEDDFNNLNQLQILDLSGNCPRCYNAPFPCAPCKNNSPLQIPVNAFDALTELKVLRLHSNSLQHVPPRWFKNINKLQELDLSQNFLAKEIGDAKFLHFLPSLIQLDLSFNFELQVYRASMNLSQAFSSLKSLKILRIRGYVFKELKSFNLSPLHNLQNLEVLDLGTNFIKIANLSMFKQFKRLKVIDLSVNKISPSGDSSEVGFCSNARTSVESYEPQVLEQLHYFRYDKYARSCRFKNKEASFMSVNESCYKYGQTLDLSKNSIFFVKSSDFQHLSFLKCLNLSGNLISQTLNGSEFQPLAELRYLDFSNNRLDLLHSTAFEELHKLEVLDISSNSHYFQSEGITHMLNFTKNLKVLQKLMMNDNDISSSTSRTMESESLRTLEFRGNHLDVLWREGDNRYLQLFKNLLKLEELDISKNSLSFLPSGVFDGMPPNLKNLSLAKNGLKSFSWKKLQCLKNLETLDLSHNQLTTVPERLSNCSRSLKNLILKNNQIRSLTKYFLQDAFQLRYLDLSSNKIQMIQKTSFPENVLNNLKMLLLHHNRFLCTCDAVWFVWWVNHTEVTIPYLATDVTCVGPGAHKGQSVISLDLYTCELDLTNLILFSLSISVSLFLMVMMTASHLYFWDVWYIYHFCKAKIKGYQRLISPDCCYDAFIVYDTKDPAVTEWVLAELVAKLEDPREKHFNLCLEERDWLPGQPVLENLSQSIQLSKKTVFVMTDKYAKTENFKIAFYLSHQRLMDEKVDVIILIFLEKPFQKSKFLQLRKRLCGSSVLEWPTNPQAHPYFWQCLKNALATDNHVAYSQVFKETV
Assay: HEK Cell Assay (TLR7/NFKb HEK reporter cells, Steady-Glo)
Type: cell-based
Settings: compound 30 min, then R*48 agonist 5 hours, Steady-Glo readout, read-out: Potency
Experimental: Example 32: HEK Cell Assay
Into 384 CulturePlates (Corning 3707) was placed 5000 c/w of TLR7/NFKb HEK cells in 30 uL DMEM without Phenil red (gibco #31053) and 10% i.a. FCS and 2 mM L-ZGLutamin. The cells were incubated for 24 h at 37 degrees Celsius, 10% carbon dioxide and 90% relative humidity, 3 uL of controls, standards, and compounds were dispensed to wells, incubated for 30 min then 3 uL of R*48 agonist in 20 mM Hepes was added. After incubation for 5 hours, it was allowed to stand at room temperature for 15 min, 10 uL of Steady-Glo substrate reagent was added and shake assay plate for 5 min at 1500 rpm. The assay plate was allowed to sit for 30 min at room temperature and then read plate on EnVision.

SMILES | IC50 [nM]
COCCN[C@@H]1C[C@H](C)C[C@@H](c2ccc(C#N)c3nccnc23)C1 (relative stereo) [Compound 134, 8-[(1,trans-3,cis-5)-3-[(2-methoxyethyl)amino]-5-methylcyclohexyl]quinoxaline-5-carbonitrile] | 1000 to 20000
CC1CC(c2ccc(C(F)(F)F)c3ncccc23)CN(C(=O)CCN2CCN(C)CC2)C1 (stereo in doubt) [Compound 45, 3-(4-Methyl-piperazin-1-yl)-1-[(3S,5S)-3-methyl-5-(8-trifluoromethyl-quinolin-5-yl)-piperidin-1-yl]-propan-1-one] | 1000 to 20000
CC1CC(c2ccc(C#N)c3ncccc23)CN(C(=O)CC2CCN(C)CC2)C1 (stereo in doubt) [Compound 55, 5-{(3S,5R)-5-Methyl-1-[2-(1-methyl-piperidin-4-yl)-acetyl]-piperidin-3-yl}-quinoline-8-carbonitrile] | < 1000
C[C@@H]1C[C@H](c2ccc(C#N)c3ncccc23)CN(C(=O)CC2CCN(C)CC2)C1 [Compound 1] | < 1000
C[C@@H]1CC(c2ccc(C#N)c3ncccc23)CN(C(=O)CC2CCN(C)CC2)C1 (stereo partly drawn) [Compound 2] | < 1000
CC1CC(c2ccc(C(F)(F)F)c3ncccc23)CN(C(=O)CC2CCN(C)CC2)C1 (stereo not drawn) [Compound 3, 2-(1-Methyl-piperidin-4-yl)-1-[3-methyl-5-(8-trifluoromethyl-quinolin-5-yl)-piperidin-1-yl]-ethanone] | < 1000
CC1CC(c2ccc(C(F)(F)F)c3ncccc23)CN(C(=O)CCN2CCN(C)CC2)C1 (stereo not drawn) [Compound 11, 3-(4-Methyl-piperazin-1-yl)-1-[3-methyl-5-(8-trifluoromethyl-quinolin-5-yl)-piperidin-1-yl]-propan-1-one] | 1000 to 20000
C[C@@H]1CC(c2ccc(C(F)(F)F)c3ncccc23)CN(C(=O)CCn2cccn2)C1 (stereo partly drawn) [Compound 12] | > 20000
CC1C[C@@H](c2ccc(C(F)(F)F)c3ncccc23)CN(C(=O)CN2CCOCC2)C1 (stereo partly drawn) [Compound 17] | > 20000
CC1CC(c2ccc(C(F)(F)F)c3ncccc23)CN(C(=O)CC2CC3CCC(C2)N3C)C1 (stereo not drawn) [Compound 18, 2-(8-Methyl-8-aza-bicyclo[3.2.1]oct-3-yl)-1-[3-methyl-5-(8-trifluoromethyl-quinolin-5-yl)-piperidin-1-yl]-ethanone] | < 1000
CC1C[C@@H](c2ccc(C#N)c3ncccc23)CN(C(=O)Cc2cccnc2)C1 (stereo partly drawn) [Compound 21] | > 20000
CC1CC(c2ccc(Cl)c3ncccc23)CN(C(=O)CC2CCN(C)CC2)C1 (stereo not drawn) [Compound 22, 1-[3-(8-Chloro-quinolin-5-yl)-5-methyl-piperidin-1-yl]-2-(1-methyl-piperidin-4-yl)-ethanone] | < 1000
CC1CC(c2ccc(C#N)c3ncccc23)CN(C(=O)CCC2CCN(C)CC2)C1 (stereo not drawn) [Compound 23] | < 1000
CC1C[C@H](c2ccc(C#N)c3ncccc23)CN(C(=O)CCc2cccnc2)C1 (stereo partly drawn) [Compound 25] | 1000 to 20000
CC1C[C@H](c2ccc(C#N)c3ncccc23)CN(C(=O)CC(F)(F)F)C1 (stereo partly drawn) [Compound 27] | > 20000
C[C@@H]1C[C@H](c2ccc(C#N)c3ncccc23)CN(C(=O)CC2CCN(C)C2)C1 (stereo partly drawn) [Compound 35, cis-5-Methyl-1-[2-(1-methyl-pyrrolidin-3-yl)-acetyl]-piperidin-3-yl-quinoline-8-carbonitrile] | < 1000
C[C@@H]1C[C@H](c2ccc(C(F)(F)F)c3ncccc23)CN(C(=O)CC2CCN(C)CC2)C1 [Compound 42, 2-(1-Methyl-piperidin-4-yl)-1-[(3R,5R)-3-methyl-5-(8-trifluoromethyl-quinolin-5-yl)-piperidin-1-yl]-ethanone] | < 1000
C[C@H]1C[C@@H](c2ccc(C(F)(F)F)c3ncccc23)CN(C(=O)CC2CCN(C)CC2)C1 [Compound 43, 2-(1-Methyl-piperidin-4-yl)-1-[(3S,5S)-3-methyl-5-(8-trifluoromethyl-quinolin-5-yl)-piperidin-1-yl]-ethanone] | 1000 to 20000

SMILES | IC50 [nM]
C[C@@H]1C[C@H](c2ccc(C(F)(F)F)c3ncccc23)CN(C(=O)CCN2CCN(C)CC2)C1 [Compound 44, 3-(4-Methyl-piperazin-1-yl)-1-[(3R,5R)-3-methyl-5-(8-trifluoromethyl-quinolin-5-yl)-piperidin-1-yl]-propan-1-one] | < 1000
CC(C)N1CCC(CC(=O)N2C[C@H](C)C[C@H](c3ccc(C#N)c4ncccc34)C2)CC1 [Compound 46, 5-{(3R,5R)-1-[2-(1-Isopropyl-piperidin-4-yl)-acetyl]-5-methyl-piperidin-3-yl}-quinoline-8-carbonitrile] | < 1000
CC(C)N1CCC(CC(=O)N2C[C@@H](C)C[C@@H](c3ccc(C#N)c4ncccc34)C2)CC1 [Compound 47, 5-{(3S,5S)-1-[2-(1-Isopropyl-piperidin-4-yl)-acetyl]-5-methyl-piperidin-3-yl}-quinoline-8-carbonitrile] | 1000 to 20000
COC(=O)CCN1CC(C)CC(c2ccc(C#N)c3ncccc23)C1 (stereo not drawn) [Compound 48, 3-[3-(8-Cyano-quinolin-5-yl)-5-methyl-piperidin-1-yl]-propionic acid methyl ester] | > 20000
CC1CC(c2ccc(C#N)c3ncccc23)CN(CCC(N)=O)C1 (stereo not drawn) [Compound 49, 3-[3-(8-Cyano-quinolin-5-yl)-5-methyl-piperidin-1-yl]-propionamide] | > 20000
CNC(=O)CCN1CC(C)CC(c2ccc(C#N)c3ncccc23)C1 (stereo not drawn) [Compound 50] | > 20000
CC1CC(c2ccc(C#N)c3ncccc23)CN(CC2CCN(C)C2)C1 (stereo not drawn) [Compound 51] | < 1000
CC1CC(c2ccc(C#N)c3ncccc23)CN(CC2CCN(C)CC2)C1 (stereo not drawn) [Compound 52] | < 1000
C[C@@H]1C[C@@H](c2ccc(C#N)c3ncccc23)CN(C(=O)CC2CCN(C)CC2)C1 [Compound 54, 5-{(3S,5R)-5-Methyl-1-[2-(1-methyl-piperidin-4-yl)-acetyl]-piperidin-3-yl}-quinoline-8-carbonitrile] | < 1000
C[C@H]1C[C@@H](c2ccc(C#N)c3ncccc23)CN(C(=O)CC2CCN(C)CC2)C1 [Compound 56] | 1000 to 20000
CC1CC(c2ccc(C(F)(F)F)c3ncccc23)CN(c2ccon2)C1 (stereo not drawn) [Compound 57, 5-(1-Isoxazol-3-yl-5-methyl-piperidin-3-yl)-8-trifluoromethyl-quinoline] | > 20000
CC1CC(c2ccc(C(F)(F)F)c3ncccc23)CN(c2cnn(C)c2)C1 (stereo not drawn) [Compound 58, 5-[5-Methyl-1-(1-methyl-1H-pyrazol-4-yl)-piperidin-3-yl]-8-trifluoromethyl-quinoline] | 1000 to 20000
CC1CC(c2ccc(C(F)(F)F)c3ncccc23)CN(c2ncco2)C1 (stereo not drawn) [Compound 59, 5-(5-Methyl-1-oxazol-2-yl-piperidin-3-yl)-8-trifluoromethyl-quinoline] | 1000 to 20000
C[C@@H]1C[C@@H](c2ccc(C#N)c3ncccc23)CN(C(=O)[C@@H](N)C2CC2)C1 [Compound 60, trans-1-((S)-2-Amino-2-cyclopropyl-acetyl)-5-methyl-piperidin-3-yl-quinoline-8-carbonitrile] | 1000 to 20000
C[C@@H]1C[C@H](c2ccc(C#N)c3ncccc23)CN(C(=O)[C@@H](N)C2CC2)C1 [Compound 61] | 1000 to 20000
C[C@@H]1C[C@H](c2ccc(C#N)c3ncccc23)CN(C(=O)C[C@@H]2[C@H]3CN(C)C[C@@H]23)C1 [Compound 78] | < 1000
Cc1ccc([C@@H]2C[C@@H](C)CN(C(=O)CC3CCN(C)CC3)C2)c2cccnc12 [Compound 80, 1-[(3R,5S)-3-Methyl-5-(8-methyl-quinolin-5-yl)-piperidin-1-yl]-2-(1-methyl-piperidin-4-yl)-ethanone] | < 1000
Cc1ccc([C@H]2C[C@@H](C)CN(C(=O)CC3CCN(C)CC3)C2)c2cccnc12 [Compound 81, 1-[(3R,5R)-3-Methyl-5-(8-methyl-quinolin-5-yl)-piperidin-1-yl]-2-(1-methyl-piperidin-4-yl)-ethanone] | < 1000
